According to US11041184B2, “Mycobacteriophages capable of delivering auto-luminescent elements and uses thereof” (priority 2016, dated 2021):

Test system: Mtb
Test: detecting sensitivity of a host bacterial strain (Mtb) to a drug with the ARP phage, luminescence read with a luminometer
Type: cell-based, Mycobacterium tuberculosis
Settings: for bioluminescence intensity compared to a control: culture at 37° C. for at least 4 hours, DMSO control
[1] = 37° C., at least 4 hours, RIF 2 μg/mL, INH 1 μg/mL, LZD 1 μg/mL, PNU 0.5 μg/mL
[2] = FIG. 12, RIF 2 μg/mL, INH 1 μg/mL, LZD 1 μg/mL, PNU 0.5 μg/mL

Row | Compound | bioluminescence compared to a control (FIG. 12, culture for 8 hours, EMB 5 μg/mL) | statistical difference between drug group and DMSO control (n.s., p>0.05) (FIG. 12 legend, EMB 5 μg/mL, time not printed in legend) | sensitivity of Mtb to the drug at the concentration (culture for 8 hours, EMB 5 μg/mL) | sensitivity of Mtb to the drug at the concentration [1] | bioluminescence intensity compared to a control [2]
1 | CC[C@@H](CO)NCCN[C@@H](CC)CO [ethambutol] | significant decrease in bioluminescence | no statistical difference | sensitivity | – | –
2 | NNC(=O)c1ccncc1 [isoniazid] | – | – | – | sensitivities | significant decrease of bioluminescence intensity
3 | CC(=O)NC[C@H]1CN(c2ccc(N3CCOCC3)c(F)c2)C(=O)O1 [linezolid] | – | – | – | sensitivities | significant decrease of bioluminescence intensity
